The source of these data is ChEMBL document CHEMBL5465560, “Selectivity Literature for EUbOPEN Chemogenomic Library” (2024).

In experiment [1] the target is Hepatocyte growth factor-like protein (Homo sapiens) (UniProt P26927). The experiment is described as follows: Selectivity interaction (Kinase panel (Eurofins)) EUB0001564a MST1. Particulars: at 1 µM.
Experiment [2] deals with RAC-gamma serine/threonine-protein kinase (Homo sapiens, UniProt Q9Y243). As to conditions: at 10 µM.
The target of experiment [3] is Prostaglandin G/H synthase 1 (Homo sapiens) (UniProt P23219). The experiment is described as follows: Selectivity interaction (Safety Panel 44tm (Eurofins)) EUB0000162b PTGS1. Particulars: at 10 µM.
The target of experiment [4] is T1, Serine/threonine-protein kinase BRSK2 (Homo sapiens) (UniProt Q8IWQ3).
T1 sequence (whole entry): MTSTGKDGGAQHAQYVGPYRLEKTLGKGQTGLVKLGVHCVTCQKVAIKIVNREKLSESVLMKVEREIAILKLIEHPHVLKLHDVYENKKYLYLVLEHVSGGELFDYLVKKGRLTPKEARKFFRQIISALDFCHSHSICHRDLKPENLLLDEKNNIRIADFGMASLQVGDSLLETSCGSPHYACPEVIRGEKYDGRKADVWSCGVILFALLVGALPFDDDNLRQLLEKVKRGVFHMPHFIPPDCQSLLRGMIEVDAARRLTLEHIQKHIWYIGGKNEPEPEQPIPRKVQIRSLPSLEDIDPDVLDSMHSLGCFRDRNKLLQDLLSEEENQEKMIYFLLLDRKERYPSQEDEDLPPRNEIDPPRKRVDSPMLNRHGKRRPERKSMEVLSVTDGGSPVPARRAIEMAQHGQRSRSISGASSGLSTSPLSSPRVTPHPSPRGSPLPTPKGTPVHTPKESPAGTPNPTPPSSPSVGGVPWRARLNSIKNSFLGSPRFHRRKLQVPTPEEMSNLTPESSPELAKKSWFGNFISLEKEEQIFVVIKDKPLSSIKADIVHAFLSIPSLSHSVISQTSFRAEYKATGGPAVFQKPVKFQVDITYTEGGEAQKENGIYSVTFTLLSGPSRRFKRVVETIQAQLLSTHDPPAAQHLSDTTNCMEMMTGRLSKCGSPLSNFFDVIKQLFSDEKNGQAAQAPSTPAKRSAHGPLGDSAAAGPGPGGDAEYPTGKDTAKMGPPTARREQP
Kind of experiment: Selectivity interaction (ProQinase) EUB0000171b BRSK2.

Experiment [5] deals with Mitogen-activated protein kinase kinase kinase 9 (Homo sapiens) (UniProt P80192). Kind of experiment: Selectivity interaction (KinomeScan (DiscoverX)) EUB0001049a MAP3K9. As to conditions: at 1 µM.
The target of experiment [6] is T2, Mitogen-activated protein kinase kinase kinase 19 (Homo sapiens) (UniProt Q56UN5).
T2 sequence (whole entry): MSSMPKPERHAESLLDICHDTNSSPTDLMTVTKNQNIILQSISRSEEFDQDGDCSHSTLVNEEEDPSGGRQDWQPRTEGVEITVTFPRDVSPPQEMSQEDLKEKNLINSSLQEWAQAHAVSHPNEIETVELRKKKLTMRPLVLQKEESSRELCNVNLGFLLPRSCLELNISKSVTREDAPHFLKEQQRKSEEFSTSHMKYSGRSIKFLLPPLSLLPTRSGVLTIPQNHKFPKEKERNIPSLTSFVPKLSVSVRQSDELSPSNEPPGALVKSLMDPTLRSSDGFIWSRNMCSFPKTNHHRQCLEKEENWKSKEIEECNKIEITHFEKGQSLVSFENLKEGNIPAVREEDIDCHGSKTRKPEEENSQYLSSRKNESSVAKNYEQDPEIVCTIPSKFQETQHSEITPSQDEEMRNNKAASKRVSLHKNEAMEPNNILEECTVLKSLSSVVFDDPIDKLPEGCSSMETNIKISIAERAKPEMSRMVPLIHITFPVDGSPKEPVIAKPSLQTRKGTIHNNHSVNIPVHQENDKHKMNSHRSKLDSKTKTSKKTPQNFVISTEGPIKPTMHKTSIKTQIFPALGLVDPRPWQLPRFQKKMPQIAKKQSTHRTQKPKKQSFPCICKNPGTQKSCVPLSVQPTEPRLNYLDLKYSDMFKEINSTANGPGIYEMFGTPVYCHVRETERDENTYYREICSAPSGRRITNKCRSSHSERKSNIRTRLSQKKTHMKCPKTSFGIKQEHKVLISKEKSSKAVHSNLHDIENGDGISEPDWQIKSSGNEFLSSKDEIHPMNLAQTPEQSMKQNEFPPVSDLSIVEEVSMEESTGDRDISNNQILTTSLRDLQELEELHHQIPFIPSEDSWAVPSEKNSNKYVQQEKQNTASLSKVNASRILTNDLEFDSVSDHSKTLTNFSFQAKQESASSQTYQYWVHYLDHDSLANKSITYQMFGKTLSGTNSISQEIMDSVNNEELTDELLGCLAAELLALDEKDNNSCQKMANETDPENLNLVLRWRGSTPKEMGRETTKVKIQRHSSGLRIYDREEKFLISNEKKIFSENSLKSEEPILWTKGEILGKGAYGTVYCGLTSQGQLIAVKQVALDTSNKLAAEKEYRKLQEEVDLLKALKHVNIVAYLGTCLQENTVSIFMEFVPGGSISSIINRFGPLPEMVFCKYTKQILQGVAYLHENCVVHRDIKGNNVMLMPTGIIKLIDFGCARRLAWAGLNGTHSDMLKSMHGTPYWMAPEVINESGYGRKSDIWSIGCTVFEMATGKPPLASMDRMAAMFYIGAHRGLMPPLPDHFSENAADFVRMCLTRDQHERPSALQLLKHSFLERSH
The experiment is described as follows: Selectivity interaction (KinomeScan (DiscoverX)) EUB0000618a MAP3K19. Particulars: at 10 µM.

For experiment [7], the target named is G protein-coupled receptor kinase 4 (Homo sapiens) (UniProt P32298). The experiment is described as follows: Selectivity interaction (KinomeScan (DiscoverX)) EUB0001079a GRK4. As to conditions: at 1 µM.
Experiment [8] concerns the target T3, Rhodopsin kinase GRK7 (Homo sapiens) (UniProt Q8WTQ7).
T3 sequence (whole entry): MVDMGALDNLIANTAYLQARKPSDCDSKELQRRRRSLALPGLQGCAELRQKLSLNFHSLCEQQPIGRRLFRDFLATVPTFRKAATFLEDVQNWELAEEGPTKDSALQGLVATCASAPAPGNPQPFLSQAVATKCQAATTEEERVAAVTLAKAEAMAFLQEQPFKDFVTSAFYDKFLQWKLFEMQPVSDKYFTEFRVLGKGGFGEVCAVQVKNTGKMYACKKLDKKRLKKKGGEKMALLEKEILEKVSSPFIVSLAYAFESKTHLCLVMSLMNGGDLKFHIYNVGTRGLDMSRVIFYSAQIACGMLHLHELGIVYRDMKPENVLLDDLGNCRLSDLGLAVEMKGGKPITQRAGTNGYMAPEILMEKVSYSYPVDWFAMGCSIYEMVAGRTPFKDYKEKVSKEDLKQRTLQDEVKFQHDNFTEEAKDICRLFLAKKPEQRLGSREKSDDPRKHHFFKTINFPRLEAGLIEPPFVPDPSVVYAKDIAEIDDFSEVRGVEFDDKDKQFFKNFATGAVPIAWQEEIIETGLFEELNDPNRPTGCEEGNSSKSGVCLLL
The experiment is described as follows: Selectivity interaction (KinomeScan (DiscoverX)) EUB0000229b GRK7. Particulars: at 10 µM.

Mitogen-activated protein kinase kinase kinase 9 (Homo sapiens), sequence (P80192 whole entry, looked up): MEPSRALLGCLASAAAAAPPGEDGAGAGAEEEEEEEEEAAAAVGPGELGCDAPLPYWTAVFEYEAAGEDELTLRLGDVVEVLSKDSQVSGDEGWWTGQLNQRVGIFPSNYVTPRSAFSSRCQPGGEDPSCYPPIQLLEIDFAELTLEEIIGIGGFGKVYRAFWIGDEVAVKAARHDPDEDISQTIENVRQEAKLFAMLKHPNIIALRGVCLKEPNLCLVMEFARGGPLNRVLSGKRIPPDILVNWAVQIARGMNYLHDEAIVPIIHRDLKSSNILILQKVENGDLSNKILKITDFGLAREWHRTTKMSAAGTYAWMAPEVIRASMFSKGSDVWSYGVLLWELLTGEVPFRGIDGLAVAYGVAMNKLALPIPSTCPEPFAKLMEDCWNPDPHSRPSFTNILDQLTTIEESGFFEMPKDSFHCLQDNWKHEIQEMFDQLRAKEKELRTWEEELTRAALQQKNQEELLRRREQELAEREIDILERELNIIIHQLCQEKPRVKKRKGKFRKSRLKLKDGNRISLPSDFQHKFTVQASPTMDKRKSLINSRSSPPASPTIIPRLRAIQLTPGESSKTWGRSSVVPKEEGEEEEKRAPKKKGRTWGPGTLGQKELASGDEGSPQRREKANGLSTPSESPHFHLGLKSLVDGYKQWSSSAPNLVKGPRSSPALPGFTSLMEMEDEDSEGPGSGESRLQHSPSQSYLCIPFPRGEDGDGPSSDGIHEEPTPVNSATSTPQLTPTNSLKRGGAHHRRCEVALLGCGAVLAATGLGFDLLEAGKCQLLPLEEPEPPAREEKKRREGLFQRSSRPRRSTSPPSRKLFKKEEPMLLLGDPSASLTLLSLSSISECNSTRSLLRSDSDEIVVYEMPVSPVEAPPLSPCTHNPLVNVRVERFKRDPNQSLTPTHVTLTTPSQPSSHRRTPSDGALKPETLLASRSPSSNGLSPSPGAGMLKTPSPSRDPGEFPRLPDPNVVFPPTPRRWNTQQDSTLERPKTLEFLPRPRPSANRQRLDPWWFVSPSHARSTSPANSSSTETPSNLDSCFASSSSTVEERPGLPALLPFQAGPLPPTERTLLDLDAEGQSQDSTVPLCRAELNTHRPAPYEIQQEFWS
RAC-gamma serine/threonine-protein kinase, sequence (Q9Y243 whole entry): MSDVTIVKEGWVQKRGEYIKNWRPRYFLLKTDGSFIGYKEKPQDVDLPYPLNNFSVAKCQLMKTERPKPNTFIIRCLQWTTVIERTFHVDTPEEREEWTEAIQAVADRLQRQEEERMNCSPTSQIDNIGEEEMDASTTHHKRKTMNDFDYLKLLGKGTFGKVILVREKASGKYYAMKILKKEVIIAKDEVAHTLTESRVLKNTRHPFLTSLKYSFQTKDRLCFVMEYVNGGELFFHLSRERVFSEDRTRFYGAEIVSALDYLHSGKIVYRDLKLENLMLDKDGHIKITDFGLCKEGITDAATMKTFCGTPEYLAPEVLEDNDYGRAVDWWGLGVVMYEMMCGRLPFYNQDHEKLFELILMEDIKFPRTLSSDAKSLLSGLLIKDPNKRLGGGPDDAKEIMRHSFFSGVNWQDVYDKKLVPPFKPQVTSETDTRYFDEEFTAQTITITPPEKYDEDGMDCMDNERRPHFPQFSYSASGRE
G protein-coupled receptor kinase 4 (Homo sapiens), sequence (P32298 whole entry, looked up): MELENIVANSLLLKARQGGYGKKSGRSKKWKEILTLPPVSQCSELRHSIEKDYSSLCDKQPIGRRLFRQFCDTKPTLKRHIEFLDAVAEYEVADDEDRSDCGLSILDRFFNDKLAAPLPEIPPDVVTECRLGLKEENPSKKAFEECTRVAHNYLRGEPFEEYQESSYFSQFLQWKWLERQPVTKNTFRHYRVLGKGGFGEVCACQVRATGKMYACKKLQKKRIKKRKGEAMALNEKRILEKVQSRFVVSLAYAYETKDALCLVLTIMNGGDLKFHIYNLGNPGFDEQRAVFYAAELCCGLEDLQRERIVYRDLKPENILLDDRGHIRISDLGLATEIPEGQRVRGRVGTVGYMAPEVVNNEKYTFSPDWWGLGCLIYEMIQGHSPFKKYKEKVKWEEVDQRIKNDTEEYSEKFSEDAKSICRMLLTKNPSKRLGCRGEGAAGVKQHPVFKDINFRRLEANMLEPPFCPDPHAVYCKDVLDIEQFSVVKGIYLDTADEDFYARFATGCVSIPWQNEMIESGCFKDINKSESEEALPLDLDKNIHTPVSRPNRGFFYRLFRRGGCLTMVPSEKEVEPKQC
Prostaglandin G/H synthase 1 (Homo sapiens), sequence (P23219 whole entry): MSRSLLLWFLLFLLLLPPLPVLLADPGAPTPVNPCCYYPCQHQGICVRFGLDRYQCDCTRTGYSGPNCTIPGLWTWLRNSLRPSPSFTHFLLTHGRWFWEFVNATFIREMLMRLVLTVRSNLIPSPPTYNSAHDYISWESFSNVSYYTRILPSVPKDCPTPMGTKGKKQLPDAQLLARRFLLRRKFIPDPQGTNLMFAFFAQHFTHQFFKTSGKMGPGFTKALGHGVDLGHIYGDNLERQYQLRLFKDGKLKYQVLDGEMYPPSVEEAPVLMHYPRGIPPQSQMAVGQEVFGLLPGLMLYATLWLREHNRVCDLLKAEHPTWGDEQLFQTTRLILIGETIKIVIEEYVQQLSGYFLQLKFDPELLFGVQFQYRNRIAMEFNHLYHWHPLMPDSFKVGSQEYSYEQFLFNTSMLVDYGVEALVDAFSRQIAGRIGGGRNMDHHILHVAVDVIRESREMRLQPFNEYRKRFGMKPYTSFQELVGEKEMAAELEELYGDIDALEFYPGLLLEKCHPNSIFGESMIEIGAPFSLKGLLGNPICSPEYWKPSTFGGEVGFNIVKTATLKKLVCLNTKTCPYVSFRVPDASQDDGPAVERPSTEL

For `CC[C@@H](Nc1c(C#N)c(-c2ccc(-c3cccc(C)c3F)cc2)nc2cnccc12)C(=O)O` [BAY-091], the % of inhibition in experiment [1] was found to be 20.6%. On to `CCN(CC)CCCCNc1ncc2cc(-c3cc(OC)cc(OC)c3)c(NC(=O)NC(C)(C)C)nc2n1`, for which the % of control in experiment [2] stood at 100%.

The molecule `CN(C)C(=O)Cn1cc(-c2ccc(-c3cncc4ccccc34)cc2)cn1` came in with a % of control in experiment [3] of 59%. Turning to `C=CC(=O)Nc1cccc(C(=O)Nc2ccc(Nc3cc(-c4[nH]c(SC)nc4C)ccn3)cc2)c1`, the % of control in experiment [4] (at 1 µM) was found to be 103%; in experiment [4] (at 5 µM), 85%. In turn, `COc1cc(Nc2nc(C)cc(-c3cnn4nc(OC)ccc34)n2)cc(C(F)(F)F)c1` registered a % of control in experiment [5] of 96%.

Regarding `O[C@H]1CC[C@H](Nc2ncc3nc(Nc4c(F)cc(F)cc4F)n([C@H]4CCOC4)c3n2)CC1`, in experiment [6], the % of control was 47%. The molecule `Nc1cnc(N2CCc3cc(S(=O)(=O)Nc4c(F)cc(Cl)cc4F)cc(N4CCCC4=O)c32)nc1` [TP-020n] gave a % of control in experiment [7] of 100%. The molecule `COc1cc(N(C)c2ccnc3ccc(C(F)(F)F)cc23)cc(OC)c1OC` gave a % binding in experiment [8] of 69%.
